Source: US8044069B2, “Compounds as calcium channel blockers” (Abbott Laboratories, priority 2008, dated 2011)

Tests used:
[1] = molecular target: human Cav2.2 (Homo sapiens, UniProt Q00975); assay: Assessment of calcium channel activity using FLIPR (Ca2+ influx in IMR32 cells); format: cell-based; conditions: IMR32 cells endogenously expressing human Cav2.2; 60 minute pre-incubation; 2 μM nifedipine; depolarized with 80 mM KCl, 5 mM CaCl2
How it was run: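 IMR32 cells were dye-loaded and pre-incubated 60 min with compound (10 μM to 0.1 nM) in 1.3 mM CaCl2 plus 2 μM nifedipine to block L-type channels. Cells were then depolarized with 80 mM KCl while Ca2+ was raised to 5 mM, and FLIPR read the influx. IC50 came from a sigmoidal fit of % inhibition versus the no-inhibitor control.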

[2] = tested on: Sprague Dawley rats; assay: Capsaicin induced secondary mechanical hyperalgesia model; format: in vivo; conditions: Rattus norvegicus, po, 1 h; 30 mg/kg p.o., 60 minutes before testing; secondary mechanical hyperalgesia 180 minutes after capsaicin; von Frey paw withdrawal threshold
Experimental: (ii) In Vivo Data—Capsaicin Induced Secondary Mechanical Hyperalgesia Model:
Sprague Dawley rats were briefly restrained, and capsaicin was administered at 10 μg in 10 μL of vehicle by intraplantar injection into the center of the right hind paw. Secondary mechanical hyperalgesia (SMH) was measured at the heel away from the site of injection 180 minutes following capsaicin exposure. Compounds and gabapentin (positive control), were administered p.o. 60 minutes before testing (2 hours after capsaicin) or i.p. 30 minutes before testing (2.5 hours after capsaicin). SMH was measured using calibrated von Frey filaments (Stoelting, Woodale, Ill.). Following the 1 hour habituation in the testing room, rats were moved to individual plexiglass chambers that sit on top of a wire mesh to allow for access for stimulation of the plantar surface of the hind paws. Rats were allowed to acclimate to the new chambers for 15 minutes before the onset of testing. The paw withdrawal threshold was determined by increasing and decreasing stimulus intensity (force: g) and calculated using Dixon's up-down method (Chaplan, S. R.; Bach, F. W.; Pogrel, J. W.; Chung, J. M.; Yaksh, T. L.; Quantitative assessment of tactile allodynia in the rat paw. J. Neuroscience Methods 1994, 53(1), 55-63). The filaments (maximum force of 15.0 g) were held in place for 8 seconds or until there was a withdrawal response from the mechanical stimulation.

Sequence of human Cav2.2 (Q00975 whole entry): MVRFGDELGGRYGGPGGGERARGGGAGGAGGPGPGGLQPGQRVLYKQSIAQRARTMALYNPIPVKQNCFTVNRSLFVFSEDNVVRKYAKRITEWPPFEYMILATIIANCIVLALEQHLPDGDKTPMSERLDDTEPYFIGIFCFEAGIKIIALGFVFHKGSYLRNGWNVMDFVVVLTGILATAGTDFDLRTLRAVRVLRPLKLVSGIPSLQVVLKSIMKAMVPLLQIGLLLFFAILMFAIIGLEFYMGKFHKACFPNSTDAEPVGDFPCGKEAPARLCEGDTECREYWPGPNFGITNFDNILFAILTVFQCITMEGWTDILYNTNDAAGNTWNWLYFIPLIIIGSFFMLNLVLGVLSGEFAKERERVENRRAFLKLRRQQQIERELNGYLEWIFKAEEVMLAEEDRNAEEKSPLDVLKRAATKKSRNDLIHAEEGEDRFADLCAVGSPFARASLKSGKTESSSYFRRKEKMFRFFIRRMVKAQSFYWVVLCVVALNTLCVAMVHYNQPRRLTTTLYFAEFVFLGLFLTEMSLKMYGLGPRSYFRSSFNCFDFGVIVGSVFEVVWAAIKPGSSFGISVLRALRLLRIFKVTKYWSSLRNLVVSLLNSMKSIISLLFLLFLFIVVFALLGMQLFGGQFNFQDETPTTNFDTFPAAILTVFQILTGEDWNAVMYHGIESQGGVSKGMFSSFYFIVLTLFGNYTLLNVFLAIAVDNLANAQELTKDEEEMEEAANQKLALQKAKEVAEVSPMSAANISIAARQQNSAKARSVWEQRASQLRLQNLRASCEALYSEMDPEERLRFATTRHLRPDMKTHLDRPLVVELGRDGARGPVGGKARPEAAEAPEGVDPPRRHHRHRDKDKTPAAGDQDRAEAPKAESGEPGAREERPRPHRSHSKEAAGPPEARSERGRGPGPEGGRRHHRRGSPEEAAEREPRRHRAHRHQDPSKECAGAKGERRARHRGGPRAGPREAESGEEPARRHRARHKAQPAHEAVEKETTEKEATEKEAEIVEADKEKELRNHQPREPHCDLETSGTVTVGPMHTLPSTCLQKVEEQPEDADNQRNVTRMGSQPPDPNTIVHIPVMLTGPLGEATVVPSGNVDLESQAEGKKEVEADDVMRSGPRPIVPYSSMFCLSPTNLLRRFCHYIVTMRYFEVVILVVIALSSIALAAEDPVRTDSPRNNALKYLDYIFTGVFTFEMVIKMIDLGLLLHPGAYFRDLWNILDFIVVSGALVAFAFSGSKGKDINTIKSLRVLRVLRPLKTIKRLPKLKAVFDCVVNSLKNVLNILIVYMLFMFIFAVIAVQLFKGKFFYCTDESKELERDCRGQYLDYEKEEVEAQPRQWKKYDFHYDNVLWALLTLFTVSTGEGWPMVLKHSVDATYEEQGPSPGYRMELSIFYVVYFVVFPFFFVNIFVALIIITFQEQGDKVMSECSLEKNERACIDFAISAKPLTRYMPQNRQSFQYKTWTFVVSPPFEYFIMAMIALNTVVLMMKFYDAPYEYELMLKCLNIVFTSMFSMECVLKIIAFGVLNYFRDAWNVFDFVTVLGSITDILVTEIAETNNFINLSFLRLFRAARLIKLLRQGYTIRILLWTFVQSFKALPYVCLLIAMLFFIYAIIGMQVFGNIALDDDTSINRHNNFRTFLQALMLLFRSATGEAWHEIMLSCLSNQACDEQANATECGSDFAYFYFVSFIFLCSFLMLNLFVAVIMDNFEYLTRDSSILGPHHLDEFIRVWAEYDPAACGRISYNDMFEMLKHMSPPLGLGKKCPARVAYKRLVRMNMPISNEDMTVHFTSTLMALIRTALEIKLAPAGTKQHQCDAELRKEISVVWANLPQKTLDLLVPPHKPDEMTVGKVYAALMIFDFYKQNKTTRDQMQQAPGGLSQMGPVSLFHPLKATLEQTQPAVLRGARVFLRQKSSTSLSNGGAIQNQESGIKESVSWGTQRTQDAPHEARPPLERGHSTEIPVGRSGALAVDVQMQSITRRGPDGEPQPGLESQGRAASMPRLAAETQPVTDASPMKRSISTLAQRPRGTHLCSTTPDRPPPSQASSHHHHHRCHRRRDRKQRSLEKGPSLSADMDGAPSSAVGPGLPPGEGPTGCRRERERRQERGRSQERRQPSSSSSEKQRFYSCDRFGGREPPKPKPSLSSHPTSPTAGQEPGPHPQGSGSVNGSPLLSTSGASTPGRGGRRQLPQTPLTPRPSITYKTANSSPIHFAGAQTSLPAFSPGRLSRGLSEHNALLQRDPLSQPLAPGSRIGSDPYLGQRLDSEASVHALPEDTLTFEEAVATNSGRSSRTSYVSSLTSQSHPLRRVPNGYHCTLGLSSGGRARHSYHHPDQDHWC
Sequence of human Cav2.2 (P54289 25-951 partner limits assumed): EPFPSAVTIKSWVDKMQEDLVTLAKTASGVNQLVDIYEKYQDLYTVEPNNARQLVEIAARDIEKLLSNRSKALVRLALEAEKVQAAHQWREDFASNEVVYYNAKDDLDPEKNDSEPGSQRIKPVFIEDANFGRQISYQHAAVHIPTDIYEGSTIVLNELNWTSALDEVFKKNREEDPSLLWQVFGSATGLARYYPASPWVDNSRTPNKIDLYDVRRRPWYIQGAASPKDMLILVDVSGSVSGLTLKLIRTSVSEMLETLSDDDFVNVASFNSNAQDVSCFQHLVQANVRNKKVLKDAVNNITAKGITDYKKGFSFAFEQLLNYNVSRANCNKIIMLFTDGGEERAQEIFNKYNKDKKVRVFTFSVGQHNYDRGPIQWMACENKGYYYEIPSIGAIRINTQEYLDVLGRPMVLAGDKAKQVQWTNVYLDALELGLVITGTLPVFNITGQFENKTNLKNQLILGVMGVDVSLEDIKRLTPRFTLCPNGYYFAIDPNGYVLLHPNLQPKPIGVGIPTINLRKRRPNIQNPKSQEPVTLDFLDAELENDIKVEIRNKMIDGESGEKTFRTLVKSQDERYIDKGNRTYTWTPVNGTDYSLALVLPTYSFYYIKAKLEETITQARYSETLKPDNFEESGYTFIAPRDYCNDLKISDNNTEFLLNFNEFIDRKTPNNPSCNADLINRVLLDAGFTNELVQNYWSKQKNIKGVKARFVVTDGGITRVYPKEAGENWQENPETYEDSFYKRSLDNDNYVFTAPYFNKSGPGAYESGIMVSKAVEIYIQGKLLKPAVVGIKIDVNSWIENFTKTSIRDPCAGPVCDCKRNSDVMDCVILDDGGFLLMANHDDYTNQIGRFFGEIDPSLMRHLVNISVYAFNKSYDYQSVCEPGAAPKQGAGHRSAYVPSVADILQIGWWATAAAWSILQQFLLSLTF
Sequence of human Cav2.2 (P54289 952-1103 partner limits assumed): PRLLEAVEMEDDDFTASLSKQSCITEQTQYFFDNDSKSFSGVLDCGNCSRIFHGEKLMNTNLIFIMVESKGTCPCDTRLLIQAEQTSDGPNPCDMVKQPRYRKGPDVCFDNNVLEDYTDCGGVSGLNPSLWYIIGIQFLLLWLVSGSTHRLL
Sequence of human Cav2.2 (P54284 whole entry partner): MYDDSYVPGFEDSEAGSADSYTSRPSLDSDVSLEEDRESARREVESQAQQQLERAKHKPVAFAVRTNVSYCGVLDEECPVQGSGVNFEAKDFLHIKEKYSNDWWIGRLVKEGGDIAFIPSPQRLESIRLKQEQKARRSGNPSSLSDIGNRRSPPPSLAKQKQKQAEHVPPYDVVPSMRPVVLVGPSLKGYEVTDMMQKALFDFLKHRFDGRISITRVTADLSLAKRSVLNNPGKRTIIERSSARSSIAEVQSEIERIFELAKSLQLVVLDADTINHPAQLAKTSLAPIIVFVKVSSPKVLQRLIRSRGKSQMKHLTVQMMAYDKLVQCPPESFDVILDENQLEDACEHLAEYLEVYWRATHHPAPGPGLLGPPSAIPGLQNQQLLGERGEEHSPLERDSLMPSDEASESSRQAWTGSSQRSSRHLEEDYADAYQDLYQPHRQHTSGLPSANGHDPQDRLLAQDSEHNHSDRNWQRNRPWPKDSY

Compound	IC50 [1]	inhibition in vivo at 30 mg/kg [2]
O=C(CN1CCC(c2ccc(F)cc2)C1=O)N1Cc2ccc(C(F)(F)F)cc2C1 (single isomer, unassigned; (+)) [Example 264, (+)-3-(4-fluorophenyl)-1-{2-oxo-2-[5-(trifluoromethyl)-1,3-dihydro-2H-isoindol-2-yl]ethyl}pyrrolidin-2-one]	14.1 µM	49%
O=C(CN1CCC(c2ccccc2)(c2ccccc2)C1=O)N1CCN(C(c2ccccc2)c2ccccc2)CC1 [Example 1, 1-[2-(4-benzhydrylpiperazin-1-yl)-2-oxoethyl]-3,3-diphenylpyrrolidin-2-one]	1.1 µM	61%
O=C(CN1CCC(c2ccccc2)(c2ccccc2)C1=O)N1CCC(c2ccccc2)(c2ccccc2)C1 [Example 17, 1-[2-(3,3-diphenylpyrrolidin-1-yl)-2-oxoethyl]-3,3-diphenylpyrrolidin-2-one]	0.78 µM	50%
O=C(CN1CCC(c2ccccc2)(c2ccccc2)C1=O)N1CCN(C(c2ccccc2)c2ccccc2)C(=O)C1 [Example 28, 1-benzhydryl-4-[(2-oxo-3,3-diphenylpyrrolidin-1-yl)acetyl]piperazin-2-one]	1.09 µM	60%
O=C(CN1CCC(c2ccccc2)(c2ccccc2)C1=O)NC1CCN(Cc2cccc(C(F)(F)F)c2)CC1 [Example 41, 2-(2-oxo-3,3-diphenylpyrrolidin-1-yl)-N-{1-[3-(trifluoromethyl)benzyl]piperidin-4-yl}acetamide]	0.78 µM	75%
O=C(CN1CCC(c2ccccc2)(c2ccccc2)C1=O)N1CCN(C(c2ccc(F)cc2)c2ccc(F)cc2)CC1 [Example 45, 1-(2-{4-[bis(4-fluorophenyl)methyl]piperazin-1-yl}-2-oxoethyl)-3,3-diphenylpyrrolidin-2-one]	0.43 µM	51%
O=C(CN1CCC(c2ccc(F)cc2)(c2ccc(F)cc2)C1=O)N1CCN(C(c2ccccc2)c2ccccc2)CC1 [Example 58, 1-[2-(4-benzhydrylpiperazin-1-yl)-2-oxoethyl]-3,3-bis(4-fluorophenyl)pyrrolidin-2-one]	0.83 µM	97%
O=C(CN1CCCC(c2ccccc2)(c2ccccc2)C1=O)N1CCN(C(c2ccccc2)c2ccccc2)CC1 [Example 68, 1-[2-(4-benzhydrylpiperazin-1-yl)-2-oxoethyl]-3,3-diphenylpiperidin-2-one]	1.38 µM	71%
O=C(CN1CCCC(c2ccccc2)(c2ccccc2)C1=O)N1CCC(c2ccccc2)(c2ccccc2)CC1 [Example 72, 1-[2-(4,4-diphenylpiperidin-1-yl)-2-oxoethyl]-3,3-diphenylpiperidin-2-one]	0.66 µM	78%
O=C(CN1CCCC(c2ccccc2)(c2ccccc2)C1=O)N1CCN(Cc2cccc(C(F)(F)F)c2)CC1 [Example 79, 1-(2-oxo-2-{4-[3-(trifluoromethyl)benzyl]piperazin-1-yl}ethyl)-3,3-diphenylpiperidin-2-one]	0.93 µM	49%
O=C(CN1CCCC(c2ccccc2)C1=O)N1CCN(C(c2ccccc2)c2ccccc2)CC1 (stereo not drawn) [Example 91, 1-[2-(4-benzhydrylpiperazin-1-yl)-2-oxoethyl]-3-phenylpiperidin-2-one]	2.18 µM	58%
O=C(CN1CCC(c2ccc(C(F)(F)F)cc2)C1=O)N1Cc2ccc(C(F)(F)F)cc2C1 (stereo not drawn) [Example 267, 1-{2-oxo-2-[5-(trifluoromethyl)-1,3-dihydro-2H-isoindol-2-yl]ethyl}-3-[4-(trifluoromethyl)phenyl]pyrrolidin-2-one]	7.35 µM	–
O=C(CN1CCC(c2ccc(F)cc2Cl)C1=O)N1Cc2ccc(F)cc2C1 (stereo not drawn) [Example 268, 3-(2-chloro-4-fluorophenyl)-1-[2-(5-fluoro-1,3-dihydro-2H-isoindol-2-yl)-2-oxoethyl]pyrrolidin-2-one]	11.4 µM	–
O=C(CN1CCC(c2ccc(F)cc2Cl)C1=O)N1Cc2ccc(C(F)(F)F)cc2C1 (stereo not drawn) [Example 269, 3-(2-chloro-4-fluorophenyl)-1-{2-oxo-2-[5-(trifluoromethyl)-1,3-dihydro-2H-isoindol-2-yl]ethyl}pyrrolidin-2-one]	3.21 µM	–
O=C(CN1CCC(c2ccc(Cl)c(Cl)c2)C1=O)N1Cc2ccc(F)cc2C1 (stereo not drawn) [Example 270, 3-(3,4-dichlorophenyl)-1-[2-(5-fluoro-1,3-dihydro-2H-isoindol-2-yl)-2-oxoethyl]pyrrolidin-2-one]	5.25 µM	–
O=C(CN1CCC(c2ccc(F)cc2)(c2ccc(F)cc2)C1=O)N1CCC(C(O)(c2ccc(F)cc2)c2ccc(F)cc2)CC1 [Example 271, 1-(2-{4-[bis(4-fluorophenyl)(hydroxy)methyl]piperidin-1-yl}-2-oxoethyl)-3,3-bis(4-fluorophenyl)pyrrolidin-2-one]	2.57 µM	–
O=C(CN1CCCC(c2ccccc2)(c2ccccc2)C1=O)N1CCC(C(O)(c2ccc(F)cc2)c2ccc(F)cc2)CC1 [Example 272, 1-(2-{4-[bis(4-fluorophenyl)(hydroxy)methyl]piperidin-1-yl}-2-oxoethyl)-3,3-diphenylpiperidin-2-one]	1.96 µM	–
CC(C)N1CCN(CC(=O)N2CCN(C(c3ccc(F)cc3)c3ccc(F)cc3)CC2)C(=O)C1c1ccccc1 (stereo not drawn) [Example 273, 1-(2-(4-(bis(4-fluorophenyl)methyl)piperazin-1-yl)-2-oxoethyl)-4-isopropyl-3-phenylpiperazin-2-one]	2.48 µM	–
N-(1-benzhydryl-3-methylpyrrolidin-3-yl)-2-(2-oxo-3,3-diphenylpiperidin-1-yl)acetamide [Example 86]	2.2 µM	–
